Results as given in patent US8173638B2 (Boehringer Ingelheim International GmbH, priority 2006, dated 2012).
Read-outs that look alike come from different tables or passages of the source.

Target: T1, human CB2R (Homo sapiens, UniProt P34972)
T1 construct: host or cells: CHO cells
Experiment: CB2R mediated modulation of cAMP synthesis
Format: cell-based
Details: for Emax: 0.5 h, read-out: Agonist Efficacy (%)
Outline: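 CHO cells expressing human CB2R treated with compound 30 min at 37 °C in buffer with 1 mM IBMX, 0.25% BSA and 10 uM forskolin. cAMP measured after lysis by DiscoverX-XS kit.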

[1] = CHO cells expressing human CB2R, cAMP inhibited by 1 uM CP55940 defined as 100%

T1 sequence (P34972 whole entry): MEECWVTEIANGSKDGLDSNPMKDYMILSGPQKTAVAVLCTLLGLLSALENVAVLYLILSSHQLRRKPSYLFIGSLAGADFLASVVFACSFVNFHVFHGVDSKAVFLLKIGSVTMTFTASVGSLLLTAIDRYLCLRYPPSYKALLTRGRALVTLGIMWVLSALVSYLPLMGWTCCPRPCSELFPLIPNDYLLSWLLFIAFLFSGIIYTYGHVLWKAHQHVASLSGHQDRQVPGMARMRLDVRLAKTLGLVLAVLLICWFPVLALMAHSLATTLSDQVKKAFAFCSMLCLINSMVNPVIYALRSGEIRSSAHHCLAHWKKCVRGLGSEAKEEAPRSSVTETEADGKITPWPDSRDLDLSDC

Row | SMILES | Emax [1] | EC50 (read-out: hCB2 cAMP EC50) | EC50 | Emax (CHO)
1 | CCC(C)c1ccc(NC(=O)N2CCCN(C(=O)N3CCOCC3)CC2)cc1 (stereo not drawn) [Compound 218, 4-(Morpholine-4-carbonyl)-[1,4]diazepane-1-carboxylic acid (4-sec-butyl-phenyl)-amide] | 82% | 0.02 µM |  | 
2 | CC(C)(C)c1cc(NC(=O)N2CCCN(C(=O)N3CCOCC3)CC2)on1 [Compound 225, 4-(Morpholine-4-carbonyl)-[1,4]diazepane-1-carboxylic acid (3-tert-butyl-isoxazol-5-yl)-amide] | 106% | 0.054 µM |  | 
3 | CC(C)(C)c1cc(NC(=O)N2CCCN(C(=O)CN3CCSCC3)CC2)no1 [Compound 227, 4-(2-Thiomorpholin-4-yl-acetyl)-[1,4]diazepane-1-carboxylic acid (5-tert-butyl-isoxazol-3-yl)-amide] | 102% | 0.0096 µM |  | 
4 | CC(C)(C)c1cc(NC(=O)N2CCCN(C(=O)CN3CCC(F)(F)CC3)CC2)no1 [Compound 229, 4-[2-(4,4-Difluoro-piperidin-1-yl)-acetyl]-[1,4]diazepane-1-carboxylic acid (5-tert-butyl-isoxazol-3-yl)-amide] | 104% | 0.024 µM |  | 
5 | CC(C)(C)c1cc(NC(=O)N2CCCN(C(=O)C3CCC(=O)CC3)CC2)no1 [Compound 234, 4-(4-Oxo-cyclohexanecarbonyl)-[1,4]diazepane-1-carboxylic acid (5-tert-butyl-isoxazol-3-yl)-amide] |  |  | 0.033 µM | 100%
6 | CCCCc1ccc(NC(=O)N2CCCN(C(=O)CC3CCCC3)CC2)cc1 [Example 11] | 65% | 0.074 µM |  | 
